pIC50: −log10 of the molar value. Calls of active or inactive are those of the source.
Legend:
[1] = molecular target: T1, Probable nicotinate-nucleotide adenylyltransferase (Staphylococcus aureus (strain N315), UniProt P65502); assay type: functional, Staphylococcus aureus subsp. aureus N315; settings: read-out: IC50_Mean;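 for IC50 Mean: confirmatory dose-response retesting of NadD inhibitor hits first found in an ultra-high-throughput screen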
[2] = molecular target: T2, G-protein coupled receptor 35 (Homo sapiens, UniProt Q9HC97); experiment: SAR analysis of Agonists of the GPR35 Receptor using an Image-Based Assay - Set 4. [Related pubchem assays (depositor defined):AID2013, AID2026]; assay type: functional
[3] = molecular target: G-protein coupled receptor 55 (Homo sapiens, UniProt Q9Y2T6); experiment: SAR Analysis of Selective Antagonists of GPR55 using an Image-Based Assay - Set 4. [Related pubchem assays (depositor defined):AID2013, AID2026]; assay type: functional;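 note: antagonism of response to 5 µM lysophosphatidylinositol agonist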
[4] = molecular target: T1, Probable nicotinate-nucleotide adenylyltransferase; assay type: functional, Staphylococcus aureus subsp. aureus N315
Cannabinoid receptor 1 [5] = molecular target: T3, Cannabinoid receptor 1 (Homo sapiens, UniProt P21554); experiment: SAR analysis of antagonists of the Cannabinoid Receptor 1 using an Image-Based Assay - Set 4. [Related pubchem assays (depositor defined):AID2013, AID2026]; assay type: functional
Cannabinoid receptor 2 [6] = molecular target: T4, Cannabinoid receptor 2 (Homo sapiens, UniProt P34972); experiment: SAR analysis of antagonists of the Cannabinoid Receptor 2 using an Image-Based Assay - Set 3. [Related pubchem assays (depositor defined):AID2013, AID2026]; assay type: functional
Cannabinoid receptor 1 [7] = molecular target: T3, Cannabinoid receptor 1; experiment: SAR analysis of agonists of the Cannabinoid Receptor 1 using an Image-Based Assay - Set 4. [Related pubchem assays (depositor defined):AID2013, AID2026]; assay type: functional
Cannabinoid receptor 2 [8] = molecular target: T4, Cannabinoid receptor 2; experiment: SAR analysis of agonists of the Cannabinoid Receptor 2 using an Image-Based Assay - Set 3. [Related pubchem assays (depositor defined):AID2013, AID2026]; assay type: functional
[9] = molecular target: T2, G-protein coupled receptor 35; experiment: SAR analysis of Antagonists of the GPR35 Receptor using an Image-Based Assay - Set 6. [Related pubchem assays (depositor defined):AID2013, AID2026]; assay type: functional
[10] = molecular target: T5, Delta-type opioid receptor (Homo sapiens, UniProt P41143); experiment: HTS Image-Based Screen for Antagonists of the DOR Receptor. [Related pubchem assays (depositor defined):AID1777, AID1785, AID1786, AID2133]; assay type: functional
[11] = molecular target: T6, Kappa-type opioid receptor (Homo sapiens, UniProt P41145); assay type: functional
[12] = molecular target: T6, Kappa-type opioid receptor; assay type: functional; remark: listed apart in the source
Mu-type opioid receptor = Mu-type opioid receptor (Homo sapiens, UniProt P35372); experiment: HTS Image-Based Screen for Agonists of the MOR Receptor. [Related pubchem assays (depositor defined):AID1777, AID1785, AID1786, AID2133]; assay type: functional;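 note: imaging of beta-arrestin GFP recruitment into spots after receptor activation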
[13] = molecular target: T5, Delta-type opioid receptor; experiment: HTS Image-Based Screen for Agonists of the DOR Receptor. [Related pubchem assays (depositor defined):AID1777, AID1786, AID2133]; assay type: functional
Beta-galactosidase = Beta-galactosidase (Escherichia coli, UniProt Q8VNN2); assay type: functional
[14] = DRD fibroblast viability loss – cell-based, non-viral oncogenic, luminescence, dose response (AID 1934); assay type: functional; settings: Homo sapiens
Ion channel NompC = Ion channel NompC (Danio rerio, UniProt Q7T1G6); experiment: Dose response cell-based high-throughput screening assay for agonists of the transient receptor potential channel N1 (TRPN1). [Related pubchem assays (depositor defined):AID1424, AID1448]; assay type: functional
BJ [15] = experiment: BJ-TERT fibroblast viability loss – cell-based, RAS-independent, luminescence, dose response (AID 1933); assay type: functional; settings: Homo sapiens
BJ [16] = experiment: cells; assay type: functional, cell-based; settings: Homo sapiens
BJ [17] = experiment: BJ-TERT-LT-ST fibroblast viability loss – cell-based, RAS-independent, luminescence, dose response (AID 1935); assay type: functional; settings: Homo sapiens;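 note: BJ fibroblasts immortalized with TERT plus LT and ST oncogenes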
[18] = NIH3T3 cell viability loss – ATP luminescence, mouse fibroblasts, counter-screen, dose response (AID 2010); assay type: functional, cell-based;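 note: cells exposed to compound for about 90 hours before reading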
[19] = Trypanosoma cruzi growth suppression in host cells – NIH3T3 host cells, beta-gal luminescence, confirmation (AID 2044); assay type: functional, cell-based;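 note: intracellular parasites grown in NIH/3T3 mouse fibroblasts as host cells; luminescent beta-galactosidase reporter signal from transgenic T. cruzi replicating inside host cells; inhibitors lower the luminescence signal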
Mucolipin-3 = molecular target: T7, Mucolipin-3 (Homo sapiens, UniProt Q8TDD5); experiment: Fluorescence counterscreen assay for […] agonists: dose response cell-based high-throughput screening assay to identify agonists of the transient receptor potential channel ML3 (TRPML3). [Related pubchem assays: 1424, 1448 ]; assay type: functional
T7 sequence (Q8TDD5 whole entry): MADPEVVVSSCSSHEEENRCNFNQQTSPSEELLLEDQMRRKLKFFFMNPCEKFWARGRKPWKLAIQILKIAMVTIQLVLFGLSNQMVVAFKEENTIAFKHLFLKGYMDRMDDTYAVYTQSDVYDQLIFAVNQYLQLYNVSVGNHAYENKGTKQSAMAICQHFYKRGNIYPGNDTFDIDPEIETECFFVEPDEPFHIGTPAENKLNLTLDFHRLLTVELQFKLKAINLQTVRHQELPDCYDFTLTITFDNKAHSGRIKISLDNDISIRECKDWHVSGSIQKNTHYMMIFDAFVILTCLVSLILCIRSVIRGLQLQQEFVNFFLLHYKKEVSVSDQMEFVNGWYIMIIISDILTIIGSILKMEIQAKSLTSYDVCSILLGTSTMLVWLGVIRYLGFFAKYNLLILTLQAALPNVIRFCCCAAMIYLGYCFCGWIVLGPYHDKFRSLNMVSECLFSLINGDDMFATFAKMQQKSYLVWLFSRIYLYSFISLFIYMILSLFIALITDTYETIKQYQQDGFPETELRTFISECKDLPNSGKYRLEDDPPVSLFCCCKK

[20] = microbe, parasite or virus in culture; assay type: functional; settings: Mycobacterium tuberculosis

T4 sequence (P34972 whole entry): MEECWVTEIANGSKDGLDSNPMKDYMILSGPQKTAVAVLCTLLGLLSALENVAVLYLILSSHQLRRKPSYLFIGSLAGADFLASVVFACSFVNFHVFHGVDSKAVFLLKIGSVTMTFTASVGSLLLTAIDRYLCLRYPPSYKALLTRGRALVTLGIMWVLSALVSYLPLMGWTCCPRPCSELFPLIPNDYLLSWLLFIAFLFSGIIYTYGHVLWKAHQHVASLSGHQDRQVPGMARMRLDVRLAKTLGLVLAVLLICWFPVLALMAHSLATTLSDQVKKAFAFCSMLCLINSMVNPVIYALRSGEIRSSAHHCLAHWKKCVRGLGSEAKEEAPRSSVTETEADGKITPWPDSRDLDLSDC
T3 sequence (P21554 whole entry): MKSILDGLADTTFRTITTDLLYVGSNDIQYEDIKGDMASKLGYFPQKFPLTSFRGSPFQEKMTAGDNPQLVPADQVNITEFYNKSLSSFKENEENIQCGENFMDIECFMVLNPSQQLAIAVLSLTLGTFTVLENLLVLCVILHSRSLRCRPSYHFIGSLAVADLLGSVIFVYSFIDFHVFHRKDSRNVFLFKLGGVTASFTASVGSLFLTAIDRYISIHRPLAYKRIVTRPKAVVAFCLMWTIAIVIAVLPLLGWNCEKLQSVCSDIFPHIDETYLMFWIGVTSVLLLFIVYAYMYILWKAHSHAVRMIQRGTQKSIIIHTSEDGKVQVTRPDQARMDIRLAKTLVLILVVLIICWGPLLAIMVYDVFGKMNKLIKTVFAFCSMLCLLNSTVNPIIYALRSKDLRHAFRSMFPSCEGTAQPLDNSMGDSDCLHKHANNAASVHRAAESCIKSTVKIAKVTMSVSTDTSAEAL
T2 sequence (Q9HC97 whole entry): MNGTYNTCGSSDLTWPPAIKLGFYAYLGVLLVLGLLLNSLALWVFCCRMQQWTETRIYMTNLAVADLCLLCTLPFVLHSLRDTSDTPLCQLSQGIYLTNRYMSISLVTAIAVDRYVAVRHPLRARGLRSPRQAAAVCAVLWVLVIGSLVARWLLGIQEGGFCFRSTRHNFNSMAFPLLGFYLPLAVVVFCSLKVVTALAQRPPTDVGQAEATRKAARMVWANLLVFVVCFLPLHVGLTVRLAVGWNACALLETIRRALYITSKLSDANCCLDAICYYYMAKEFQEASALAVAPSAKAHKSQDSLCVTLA
T6 sequence (P41145 whole entry): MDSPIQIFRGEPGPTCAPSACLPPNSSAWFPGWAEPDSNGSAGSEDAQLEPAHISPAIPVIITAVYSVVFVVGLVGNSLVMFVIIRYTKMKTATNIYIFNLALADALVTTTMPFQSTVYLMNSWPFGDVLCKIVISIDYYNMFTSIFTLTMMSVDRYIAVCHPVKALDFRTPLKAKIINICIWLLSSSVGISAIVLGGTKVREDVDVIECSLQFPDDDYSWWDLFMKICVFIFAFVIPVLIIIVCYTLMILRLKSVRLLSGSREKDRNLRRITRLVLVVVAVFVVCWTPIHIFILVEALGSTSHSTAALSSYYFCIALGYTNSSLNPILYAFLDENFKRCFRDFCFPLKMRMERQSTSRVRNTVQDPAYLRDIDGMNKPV
T5 sequence (P41143 whole entry): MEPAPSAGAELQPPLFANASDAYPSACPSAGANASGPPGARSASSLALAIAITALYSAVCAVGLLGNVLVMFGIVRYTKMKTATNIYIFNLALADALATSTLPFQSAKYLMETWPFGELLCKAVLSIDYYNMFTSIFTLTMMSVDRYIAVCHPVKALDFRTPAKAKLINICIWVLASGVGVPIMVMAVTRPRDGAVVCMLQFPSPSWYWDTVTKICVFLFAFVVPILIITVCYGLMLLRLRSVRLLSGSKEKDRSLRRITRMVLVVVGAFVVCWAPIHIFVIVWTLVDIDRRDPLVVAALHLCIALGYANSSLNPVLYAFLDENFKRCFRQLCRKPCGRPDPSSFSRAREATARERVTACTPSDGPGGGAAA
G-protein coupled receptor 55, sequence (Q9Y2T6 whole entry): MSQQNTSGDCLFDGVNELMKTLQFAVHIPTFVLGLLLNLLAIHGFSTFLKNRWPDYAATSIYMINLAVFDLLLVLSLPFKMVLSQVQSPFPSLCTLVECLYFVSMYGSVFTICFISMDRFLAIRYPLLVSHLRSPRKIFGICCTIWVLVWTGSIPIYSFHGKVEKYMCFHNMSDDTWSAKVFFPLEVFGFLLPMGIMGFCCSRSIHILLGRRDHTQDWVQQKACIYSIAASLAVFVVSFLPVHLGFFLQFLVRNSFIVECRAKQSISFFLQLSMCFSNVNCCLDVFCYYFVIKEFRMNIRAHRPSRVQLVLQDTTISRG
T1 sequence (P65502 whole entry): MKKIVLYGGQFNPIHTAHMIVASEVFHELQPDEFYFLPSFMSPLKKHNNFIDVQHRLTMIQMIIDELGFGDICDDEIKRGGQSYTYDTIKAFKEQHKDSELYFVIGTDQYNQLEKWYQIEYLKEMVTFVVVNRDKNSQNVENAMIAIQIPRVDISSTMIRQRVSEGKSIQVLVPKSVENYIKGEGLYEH
Beta-galactosidase, sequence (Q8VNN2 whole entry): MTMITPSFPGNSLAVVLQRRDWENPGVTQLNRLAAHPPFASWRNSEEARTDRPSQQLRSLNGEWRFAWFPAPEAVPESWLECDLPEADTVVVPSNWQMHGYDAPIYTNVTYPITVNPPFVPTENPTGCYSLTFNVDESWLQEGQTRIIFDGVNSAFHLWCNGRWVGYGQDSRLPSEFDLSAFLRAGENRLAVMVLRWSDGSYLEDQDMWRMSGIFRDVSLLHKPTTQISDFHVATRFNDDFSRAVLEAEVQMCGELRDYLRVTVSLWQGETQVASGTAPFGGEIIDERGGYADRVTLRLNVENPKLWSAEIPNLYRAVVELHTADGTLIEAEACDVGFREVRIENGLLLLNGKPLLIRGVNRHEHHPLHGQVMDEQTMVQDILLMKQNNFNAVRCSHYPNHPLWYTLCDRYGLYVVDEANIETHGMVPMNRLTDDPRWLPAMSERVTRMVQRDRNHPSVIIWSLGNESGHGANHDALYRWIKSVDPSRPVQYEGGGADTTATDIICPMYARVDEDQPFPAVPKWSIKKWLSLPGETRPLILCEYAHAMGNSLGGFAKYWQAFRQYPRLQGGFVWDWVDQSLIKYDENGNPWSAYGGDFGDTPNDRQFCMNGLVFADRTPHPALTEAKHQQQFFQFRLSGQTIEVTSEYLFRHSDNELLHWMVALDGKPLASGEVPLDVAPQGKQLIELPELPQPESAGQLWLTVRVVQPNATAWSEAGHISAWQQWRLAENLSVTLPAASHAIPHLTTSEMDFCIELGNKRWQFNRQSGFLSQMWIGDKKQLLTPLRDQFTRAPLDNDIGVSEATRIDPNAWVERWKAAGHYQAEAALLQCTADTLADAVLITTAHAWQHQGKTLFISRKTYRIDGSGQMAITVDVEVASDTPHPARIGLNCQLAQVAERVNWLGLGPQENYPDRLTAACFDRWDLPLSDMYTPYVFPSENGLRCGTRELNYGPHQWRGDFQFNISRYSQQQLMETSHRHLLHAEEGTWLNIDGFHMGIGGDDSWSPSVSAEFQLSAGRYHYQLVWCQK
Mu-type opioid receptor, sequence (P35372 whole entry): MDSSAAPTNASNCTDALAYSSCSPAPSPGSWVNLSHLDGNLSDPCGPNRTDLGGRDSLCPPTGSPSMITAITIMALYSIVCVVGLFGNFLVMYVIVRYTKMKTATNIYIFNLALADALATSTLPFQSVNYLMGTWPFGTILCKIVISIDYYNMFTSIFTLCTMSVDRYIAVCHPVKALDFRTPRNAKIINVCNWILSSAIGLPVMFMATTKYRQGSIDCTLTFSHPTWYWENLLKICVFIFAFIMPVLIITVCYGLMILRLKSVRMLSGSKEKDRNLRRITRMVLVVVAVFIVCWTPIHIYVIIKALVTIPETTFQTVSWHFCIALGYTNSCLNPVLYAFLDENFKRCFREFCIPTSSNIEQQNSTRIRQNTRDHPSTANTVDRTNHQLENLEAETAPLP

In the case of `O=C(Nc1ccc(S(=O)(=O)Nc2nccs2)cc1)c1cc(-c2ccccc2)nc2ccccc12`, the IC50 [1] was 20 µM (active), the EC50 [2] was > 32 µM (inactive) and the IC50 [3] was 5.75 µM (active). For the same molecule, the IC50 [4] was 6.12 µM (active), the IC50 (Cannabinoid receptor 1 [5]) was 4.77 µM (active) and the IC50 (Cannabinoid receptor 2 [6]) was > 32 µM (inactive). For the same molecule, the EC50 (Cannabinoid receptor 1 [7]) was > 32 µM (inactive), the EC50 (Cannabinoid receptor 2 [8]) was > 32 µM (inactive) and the IC50 [9] was > 32 µM (inactive).
In the case of `CCOc1ccc2nc(N3C(=O)CNC3=S)sc2c1`, the IC50 [10] was > 32 µM (inactive), the pIC50 [11] was < 4.49 and the IC50 [12] was 16.4 µM (active). For the same molecule, the EC50 (Mu-type opioid receptor) was > 32 µM (inactive), the EC50 [13] was > 32 µM (inactive) and the EC50 (Beta-galactosidase) was > 31.5 µM (inactive).
In the case of `CCN(CC)c1ccc(/C=C2\SC(=O)N(C(C)C)C2=O)o1`, the EC50 [14] was 35.7 µM (active), the EC50 (Ion channel NompC) was > 9.97 µM (inactive) and the EC50 (BJ [15]) was 11.7 µM (active). For the same molecule, the EC50 (BJ [16]) was 20.5 µM (active), the EC50 (BJ [17]) was > 75 µM (inconclusive) and the EC50 [18] was 18.4 µM (active). The EC50 [19] was 2.09 µM (active), the EC50 (Mucolipin-3) was > 9.97 µM (not active) and the CC50 [20] was 38.7 µM (active).
With `N=c1c(C(=O)NCCN2CCOCC2)cc2c(=O)n3ccccc3nc2n1C1CCCC1` the EC50 [2] was > 32 µM (inactive), the IC50 [3] was > 32 µM (inactive) and the IC50 (Cannabinoid receptor 1 [5]) was > 32 µM (inactive). The IC50 (Cannabinoid receptor 2 [6]) was > 32 µM (inactive), the EC50 (Cannabinoid receptor 1 [7]) was > 32 µM (inactive) and the EC50 (Cannabinoid receptor 2 [8]) was 8.59 µM (active). For the same molecule, the IC50 [9] was > 32 µM (inactive).

From ChEMBL document CHEMBL1201862, “PubChem BioAssay data set” (2004)
